In US20160075682A1, “INHIBITORS OF NICOTINAMIDE PHOSPHORIBOSYLTRANSFERASE, COMPOSITIONS, PRODUCTS AND USES THEREOF” (UNIVERSITÀ DEGLI STUDI DEL PIEMONTE ORIENTALE "AMEDEO …, priority 2013, published 2016):

Key:
[1] = system: spinal cord injury in male adult CD1 mice; experiment: Spinal cord injury by clip compression, motor function; type: in vivo; conditions: i.p. one and 6 hours post injury
Method: Male adult CD1 mice (25-30 g, Harlan Nossan, Milan, Italy) were used for all studies. Mice were housed in individual cages (5 for each group) and maintained under 12:12 light-dark cycle at 21±1° C. and 50±5% humidity.
Spinal cord injury (SCI) was induced in male adult mice by the clip compression technique (Genovese et al. J. Pharmacol. Exp. Ther. 2008a, 325, 100-14). SHAM-operated animals were taken as control. Drugs were given i.p. one and 6 hours post injury. Animal care was in compliance with Italian regulations on protection of animals used for experimental and other scientific purpose (D.M. 116192) and with the EEC regulations (O.J. of E.C. L 358/1 Dec. 18, 1986). Animals were sacrificed at post-injury (at least five animals/experimental group were analysed).
The motor function of mice subjected to SCI was assessed once a day for 7 days after injury.
The evaluations were made by two blind observers for all analyzed groups.
Briefly, the BMS is a nine-point scale that pro vides a gross indication of locomotor ability and determines the phases of locomotor recovery and features of locomotion. The BMS score was determined for ten mice in each group. Spinal cord tissues were taken at 24 hours after trauma. Tissue was used for histological grading of the damage or for immunocytochemistry with inflammation, cell death or autophagy markers.
As previously described, the spinal cord of male adult CD1 mice was injured by the clip compression technique, compound of formula (I) was administered and the motor function was assessed.

[2] = Microsomal stability with human liver microsomes; type: in vitro ADME; conditions: 50 μM substrate, 1.0 mg/mL protein, 60 minutes at 37° C., pH 7.4
Method: Male Wistar rat liver microsomes (RLM), (protein concentration: 25 mg/ml determined using the Omura and Sato method, total P450: 0.64 nmol/mg protein) were used throughout this study and prepared using an internal protocol. The cryopreserved pooled human liver microsomes (HLM), (pooled mixed sex, ten individual donors, protein concentration: 20 mg/ml, total P450: 0.36 nmol/mg) were purchased from BD Gentest™ (Woburn, Mass.) and used throughout this study.
The standard incubation mixture (1 ml final volume), was carried out in a 50 mM TRIS (Tris[hydroxymethyl]aminomethane) buffer (pH 7.4) containing 10 μl of acetonitrile (1% of total volume), and 50 μM substrate compounds. After pre-equilibration of the mixture, an appropriate volume of RLM or HLM suspension was added to give a final protein concentration of 1.0 mg/mL. The mixture was shaken for 60 minutes at 37° C. Control incubations were carried out without microsomes. Each incubation was stopped by addition of 1 ml ice-cold acetonitrile, vortexed and centrifuged at 11,000 r.p.m. for 5 min. The supernatants were analysed by LC-DAD-UV and LC-ESI-MS systems to determine the metabolic stability (% substrate residue) and the structure of metabolites respectively (Table 1).
A Shimadzu HPLC system (Shimadzu, Kyoto, Japan), consisting of two LC-10AD Vp module pumps, an SLC-10A Vp system controller, an SIL-10AD Vp autosampler, and a DGU-14-A on-line degasser were used for the analysis. Chromatographic separation was performed on a Phenomenex Luna C18(2) 150×4.6 mm (5 μm) (Phenomenex srl, Castel Bolognese, Italy) as a stationary phase protected by a C18 SecurityGuard (Phenomenex srl, Castel Bolognese, Italy). The SPD-M10Avp photodiode array detector was used to detect the analytes. LC-Solution 1.24 software was used to process the chromatograms. Aliquots (20 μL) of supernatants obtained from incubations were injected onto the HPLC system and eluted with a mobile phase (flow rate 1.0 mL/min) consisting of a A: 0.5% formic acid solution, B: acetonitrile/methanol 8:2. A Thermo Finningan LCQ Deca XP plus system equipped with a quaternary pump, a Surveyor AS autosampler, a Surveyor photodiode array detector and a vacuum degasser was used for LC/MS analyses (Thermo Electron Corporation, Waltham, Mass.). All the chromatographic separations were performed on a Phenomenex Luna C18(2)150×2 mm (4 μm) (kept at a 35° C.) as a stationary phase protected by a C18 SecurityGuard (Phenomenex srl, Castel Bolognese, Italy). Aliquots (2.0 μl) of supernatants obtained from incubations were injected onto the system and eluted with a mobile phase (flow rate 0.2 ml/min) consisting of a A: 0.2% formic acid solution, B: acetonitrile/methanol 8:2. The eluate was injected into the electrospray ion source (ESI) and MS and MS^n spectra were acquired and processed using Xcalibur® software. The operating conditions on the ion trap mass spectrometer were as follows: Positive mode, spray voltage, 5.30 kV; source current, 80 μA; capillary temperature, 350° C.; capillary voltage, 21.00 V; tube lens offset, 15.00 V; multipole 1 offset, −5.75 V; multipole 2 offset, −9.00 V; sheath gas flow (N2), 55 Auxiliary Units.

[3] = system: DNBS-induced colitis in BALB/c mice; experiment: Experimental colitis induced by DNBS; type: in vivo; conditions: i.p.; for MPO in the colon / NAMPT in the colon / TNFalpha in the colon / VEGF in the colon: DNBS-treated mice, between 20 mg/Kg and 500 mg/Kg, compared to untreated colitis mice; for protection from DNBS-induced colitis as assessed by the macroscopic damage score: doses of between 20 mg/Kg and 500 mg/Kg
Method: Animal work was authorized by the local ethical committee for animal studies (Università del Piemonte Orientale). BALB/c mice (Harlan Nossan, Milan, Italy) were anesthetized by enflurane. Dinitrobenzene sulfonic acid (DNBS; 4 mg in 100 μl of 50% ethanol) was injected into the rectum through a catheter inserted 4.5 cm proximally to the anus. Carrier alone (100 μl of 50% ethanol) was administered in control experiments. Thereafter, the animals were kept for 15 minutes in a Trendelenburg position to avoid reflux. Treatment with either solvent alone or drugs was done immediately after induction and thereafter twice a day. […] On Day 4, the animals were weighed and anaesthetized with chloral hydrate, and the abdomen was opened by a midline incision. The colon was removed, freed from surrounding tissues, opened along the antimesenteric border, rinsed, weighed, and processed for histology, biochemical measurements and immunohistochemistry. Colon damage (macroscopic damage score) was evaluated and scored by two independent observers according to the following criteria: 0, no damage; 1, localized hyperemia without ulcers; 2, linear ulcers with no significant inflammation; 3, linear ulcers with inflammation at one site; 4, two or more major sites of inflammation and ulceration extending >1 cm along the length of the colon; and 5-8, one point is added for each centimeter of ulceration beyond an initial 2 cm. Biochemical and histological analysis also included TNFalpha measurements and myeloperoxidase (MPO) measurements by ELISA assay, and VEGF, NAMPT, COX-2 measurements by immunoblotting. (Esposito E, Mazzon E, Paterniti I, Dal Toso R, Pressi G, Caminiti R, Cuzzocrea S. PPAR-alpha Contributes to the Anti-Inflammatory Activity of Verbascoside in a Model of Inflammatory Bowel Disease in Mice. PPAR Res. 2010; 2010:917312).
As previously described, the colon of DNBS- or dextran treated animals was removed after the induction of colitis. Compounds of formula (I) were administered intraperitoneally (i.p.).

| Compound | motor recovery [1] | protection from injury [1] | HLM stability % substrate residue (area peak) [2] [%] | MPO in the colon [3] | NAMPT in the colon [3] | TNFalpha in the colon [3] | VEGF in the colon [3] | protection from DNBS-induced colitis as assessed by the macroscopic damage score [3] |
| --- | --- | --- | --- | --- | --- | --- | --- | --- |
| c1ccc(-c2ccccc2OCCCCCCn2cc(-c3cccnc3)nn2)cc1 [3-(1-(6-([1,1′-biphenyl]-2-yloxy)hexyl)-1H-1,2,3-triazol-4-yl)pyridine] | partial motor recovery | partially protect from injury | >96 | able to reduce | able to reduce | able to reduce | able to reduce | able to protect |
| O=C(NCCCCCCCn1cc(-c2cccnc2)nn1)c1ccccc1-c1ccccc1 [N-(7-(4-(pyridin-3-yl)-1H-1,2,3-triazol-1-yl)heptyl)-[1,1′-biphenyl]-2-carboxamide] | partial motor recovery | partially protect from injury | >99 | able to reduce | able to reduce | able to reduce | able to reduce | able to protect |
